{"source": "PubChem BioAssay (NCI)", "assay_in_all_cases": "NCI tumour cell line growth inhibition, 48 h", "key": {"[1]": {"system": "HT29 colon"}, "[2]": {"system": "LXFL 529 NSCLC"}, "[3]": {"system": "P388/ADR leukemia"}, "[4]": {"system": "DMS 273 small cell lung"}, "[5]": {"system": "DMS 114 small cell lung"}, "[6]": {"system": "HOP-18 NSCLC"}, "[7]": {"system": "KM20L2 colon"}, "[8]": {"system": "SN12K1 renal"}, "[9]": {"system": "P388 leukemia"}, "[10]": {"system": "DLD-1 colon"}, "[11]": {"system": "RXF-631 renal"}, "[12]": {"system": "XF 498 CNS"}, "[13]": {"system": "SNB-78 CNS"}, "[14]": {"system": "M19-MEL melanoma"}}, "note": "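Where inhibition never reached the appropriate level, the endpoint shown equals the highest concentration tested. Otherwise, values were interpolated linearly from a five-concentration, 48-hour dose response in 96-well plates. GI50: concentration for 50% inhibition of growth. TGI denotes the concentration required for complete inhibition of growth.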"}
{"compound": "CN(C)CCCSc1nc2ccccc2[nH]1", "values": [{"measurement": "TGI", "setting": "[1]", "result": "> 100", "unit": "µM"}]}
{"compound": "CCOC(=O)c1cnc2oc3ccc(O)cc3c2c1C", "values": [{"measurement": "TGI", "setting": "[1]", "result": "> 100", "unit": "µM"}]}
{"compound": "COc1ccc2[nH]cc(CCNC(=O)[C@H](Cc3ccccc3)NC(=O)[C@@H](NCC(F)(F)F)C(C)C)c2c1", "values": [{"measurement": "TGI", "setting": "[1]", "result": 31.5, "unit": "µM"}]}
{"compound": "CCCCCCCCCCCCCCCCCCOc1ccccc1CC(=O)OCC[N+]1(C)CCCCC1", "values": [{"measurement": "GI50", "setting": "[1]", "result": 1.61, "unit": "µM"}, {"measurement": "TGI", "setting": "[1]", "result": 3.1, "unit": "µM"}]}
{"compound": "CN(CCCCCl)P(=O)(OCc1ccc([N+](=O)[O-])o1)OC[C@H]1O[C@@H](n2cc(F)c(=O)[nH]c2=O)C[C@@H]1O", "note": "(stereo partly drawn)", "values": [{"measurement": "TGI", "setting": "[1]", "result": "> 100", "unit": "µM"}]}
{"compound": "CN1CCOC(c2ccc(Cl)cc2)O1", "note": "(stereo not drawn)", "values": [{"measurement": "TGI", "setting": "[1]", "result": "> 100", "unit": "µM"}]}
{"compound": "CC(CCN)(CCN)[N+](=O)[O-]", "values": [{"measurement": "TGI", "setting": "[1]", "result": "> 100", "unit": "µM"}]}
{"compound": "COc1cc2c(c(O)c1OC)-c1c(cc(OC)c(OC)c1OC)CC(C)C(C)C2", "note": "(stereo not drawn)", "values": [{"measurement": "TGI", "setting": "[1]", "result": "> 100", "unit": "µM"}]}
{"compound": "C1=NCCN2CCN(CCN=Cc3ccc(cc3)OCc3cccc(n3)COc3ccc1cc3)CC2", "values": [{"measurement": "TGI", "setting": "[1]", "result": "> 50", "unit": "µM"}]}
{"compound": "C=C1c2ccccc2C(=O)c2c1c1c(C(=O)OC)c(O)ccc1n2Cc1ccccc1", "values": [{"measurement": "TGI", "setting": "[1]", "result": 0.823, "unit": "µM"}]}
{"compound": "O=C(O)c1cc([N+](=O)[O-])cc2c(=O)c3cnccc3[nH]c12", "values": [{"measurement": "TGI", "setting": "[1]", "result": "> 100", "unit": "µM"}]}
{"compound": "COC1=C(OC)C(=O)C(Cc2c(Cl)nc3sc(C)cn23)=C(C)C1=O", "values": [{"measurement": "TGI", "setting": "[1]", "result": 36.3, "unit": "µM"}]}
{"compound": "O=C([O-])C[n+]1ccccc1", "values": [{"measurement": "TGI", "setting": "[1]", "result": "> 100", "unit": "µM"}]}
{"compound": "Cn1c2ccccc2n2c(N=O)c(-c3ccccc3)nc12", "values": [{"measurement": "TGI", "setting": "[1]", "result": "> 100", "unit": "µM"}]}
{"compound": "Nc1ncnc2c1ncn2C=C=CCO", "values": [{"measurement": "TGI", "setting": "[1]", "result": "> 100", "unit": "µM"}]}
{"compound": "C[C@]12C=CC(=O)C=C1CC[C@@H]1[C@@H]2CC[C@]2(C)OC(=O)CC[C@@H]12", "values": [{"measurement": "TGI", "setting": "[2]", "result": "> 500", "unit": "µM"}, {"measurement": "TGI", "setting": "[3]", "result": 449, "unit": "µM"}, {"measurement": "TGI", "setting": "[4]", "result": "> 500", "unit": "µM"}, {"measurement": "TGI", "setting": "[5]", "result": "> 500", "unit": "µM"}, {"measurement": "TGI", "setting": "[6]", "result": 232, "unit": "µM"}, {"measurement": "TGI", "setting": "[7]", "result": "> 470", "unit": "µM"}, {"measurement": "TGI", "setting": "[8]", "result": 498, "unit": "µM"}, {"measurement": "TGI", "setting": "[9]", "result": "> 486", "unit": "µM"}, {"measurement": "TGI", "setting": "[1]", "result": "> 500", "unit": "µM"}, {"measurement": "TGI", "setting": "[10]", "result": "> 500", "unit": "µM"}, {"measurement": "TGI", "setting": "[11]", "result": "> 500", "unit": "µM"}, {"measurement": "TGI", "setting": "[12]", "result": 373, "unit": "µM"}, {"measurement": "TGI", "setting": "[13]", "result": "> 500", "unit": "µM"}]}
{"compound": "Cc1ccc(S(=O)(=O)n2cc(-c3cc(C(F)(F)F)ccn3)c3cc(Br)ccc32)cc1", "values": [{"measurement": "TGI", "setting": "[1]", "result": "> 100", "unit": "µM"}]}
{"compound": "CN1CCc2[nH]c3ccccc3c2C1", "values": [{"measurement": "TGI", "setting": "[14]", "result": "> 100", "unit": "µM"}, {"measurement": "TGI", "setting": "[4]", "result": "> 100", "unit": "µM"}, {"measurement": "TGI", "setting": "[5]", "result": "> 100", "unit": "µM"}, {"measurement": "TGI", "setting": "[6]", "result": "> 100", "unit": "µM"}, {"measurement": "TGI", "setting": "[7]", "result": "> 100", "unit": "µM"}, {"measurement": "TGI", "setting": "[8]", "result": "> 100", "unit": "µM"}, {"measurement": "TGI", "setting": "[1]", "result": "> 100", "unit": "µM"}, {"measurement": "TGI", "setting": "[10]", "result": "> 100", "unit": "µM"}, {"measurement": "TGI", "setting": "[12]", "result": "> 100", "unit": "µM"}, {"measurement": "TGI", "setting": "[13]", "result": "> 100", "unit": "µM"}]}
{"compound": "CCOc1ccc(NC(=O)C(=O)CC(=O)c2sc(NNC(C)=O)nc2C)cc1", "values": [{"measurement": "TGI", "setting": "[14]", "result": "> 100", "unit": "µM"}, {"measurement": "TGI", "setting": "[2]", "result": "> 100", "unit": "µM"}, {"measurement": "TGI", "setting": "[4]", "result": "> 100", "unit": "µM"}, {"measurement": "TGI", "setting": "[7]", "result": "> 100", "unit": "µM"}, {"measurement": "TGI", "setting": "[1]", "result": "> 100", "unit": "µM"}, {"measurement": "TGI", "setting": "[10]", "result": "> 100", "unit": "µM"}, {"measurement": "TGI", "setting": "[11]", "result": "> 100", "unit": "µM"}, {"measurement": "TGI", "setting": "[12]", "result": "> 100", "unit": "µM"}, {"measurement": "TGI", "setting": "[13]", "result": "> 100", "unit": "µM"}]}
{"compound": "O=C(Nc1ccc(Cl)cc1)c1cc2cc(N=Nc3ccccc3Cl)ccc2oc1=O", "values": [{"measurement": "TGI", "setting": "[14]", "result": 53, "unit": "µM"}, {"measurement": "TGI", "setting": "[2]", "result": 32.5, "unit": "µM"}, {"measurement": "TGI", "setting": "[5]", "result": 25, "unit": "µM"}, {"measurement": "TGI", "setting": "[6]", "result": 96.9, "unit": "µM"}, {"measurement": "TGI", "setting": "[7]", "result": 46.8, "unit": "µM"}, {"measurement": "TGI", "setting": "[1]", "result": 29.6, "unit": "µM"}, {"measurement": "TGI", "setting": "[10]", "result": 32.2, "unit": "µM"}, {"measurement": "TGI", "setting": "[12]", "result": 67.1, "unit": "µM"}, {"measurement": "TGI", "setting": "[13]", "result": 79.7, "unit": "µM"}]}
